Publication PMC9705075, “In Vitro characterization of the endocrine disrupting effects of per- and poly-fluoroalkyl substances (PFASs) on the human androgen receptor” (Journal of hazardous materials, 2022)

Legend:
[1] = test system: AR and PSA expression; set-up: method as in Kharlyngdoh et al. (2015); conditions: at 1 μM; ref Kharlyngdoh et al. (2015); cited from earlier work
[2] = molecular target: T1, human androgen receptor (hAR) (Homo sapiens, UniProt P10275); assay: Mechanism of AR inhibition: testosterone dose-response curves in presence of test chemical, luciferase reporter, MDA-kb2 cells; type: cell-based; conditions: highest noncytotoxic concentration: 15 μM NON, HEP, OCT, NNN; 1 μM FLO; 0.05 μM OHF
[3] = test system: MDA-kb2 cells; assay: Cell viability (colorimetric MTT) assay; type: cell-based, human
Experimental: The cytotoxic effect of PFASs was measured by a colorimetric MTT assay as described previously ([Tachachartvanich et al., 2020]). Briefly, MDA-kb2 cells were plated at a density of 3.0 × 10^4 cells/well in clear 96-well plates (Thermo Scientific, Waltham, MA). After 24 h incubation, cells were treated with PFASs at concentrations ranging from 0.1 to 100 μM in triplicate per treatment. The optical density was assessed at 570 nm with reference wavelength of 650 nm using microplate spectrophotometer (Tecan Infinite® 200PRO, Austria). All cytotoxicity experiments were performed side-by-side with the corresponding cell culture assays and repeated at least three times in a separate independent setup.

[4] = test system: PSA, FKBP5 and AR mRNA in VCaP human prostate cancer cells; assay: Expression of androgen responsive genes (real-time PCR) in VCaP cells; type: cell-based; conditions: 24 h; for testosterone induced expression of FKBP5 / testosterone induced expression of PSA: 1 and 5 μM PFAS with […] testosterone; for testosterone induced expression of FKBP5 / testosterone induced expression of PSA / expression of AR: 10% CD FBS; for expression of AR: PFAS (1 and 5 μM) or 50 nM OHF with […] testosterone
Experimental: VCaP cells were cultured in phenol red-free DMEM supplemented with 10% charcoal-dextran stripped FBS (10% CD FBS, Hyclone, USA) and 1% L-glutamine (Gibco, Grand Island, NY) for 3 days prior to PFAS treatment. Cells were plated at a density of 2.0 × 10^6 cells/well in 6-well plates (CellStar, Monroe, NC) and incubated 24 h. […] After the incubation, total RNA was extracted using the RNeasy Mini Kit (Qiagen, Germantown, MD). Briefly, 2 μg of total RNA were reverse transcribed to cDNA using the SuperScript IV VILO (Thermo Scientific, Waltham, MA) and subjected to real-time PCR (Stratagene MxP3005, Agilent Technologies, Palo Alto, CA). The cDNA was amplified in 10 μL of SYBR Green real-time PCR Master Mixes (Thermofisher Scientific, Waltham, MA) according to the manufacturer’s protocol. […] The fold change of the target genes was compared to the vehicle control using the 2^−ΔΔCt method ([Livak and Schmittgen, 2001]).
Fig. 4. […] Values are expressed as the mean fold change ± S.E.M. from three independent experiments. […] Significance levels are represented with asterisk as following: *p < 0.05, **p < 0.01, ***p < 0.001, and ****p < 0.0001. The Ptrend is determined based on linear regression analysis.

[5] = molecular target: T1, human androgen receptor (hAR); assay: AR-mediated luciferase reporter gene assay, antiandrogenic effects (co-culture with […] testosterone), MDA-kb2 cells; type: cell-based; conditions: for IC20: MDA-kb2, 24 h, read-out: Inhibition REC20
[6] = test system: intracellular AR protein in VCaP cells; assay: Immunoblotting of intracellular AR protein in VCaP cells; type: cell-based, human; conditions: 10% FBS, 48 h exposure to PFAS
Experimental: Cells were plated at a density of 2.0 × 10^6 cells/well in 6-well plates (CellStar, Monroe, NC) and incubated 24 h.
Values are expressed as the mean fold change ± S.E.M. from three independent experiments.

[7] = test system: AR; set-up: method as in Kjeldsen and Bonefeld-Jørgensen, 2013; conditions: in vitro study; ref Kjeldsen and Bonefeld-Jørgensen, 2013; cited from earlier work

T1 sequence (P10275 whole entry): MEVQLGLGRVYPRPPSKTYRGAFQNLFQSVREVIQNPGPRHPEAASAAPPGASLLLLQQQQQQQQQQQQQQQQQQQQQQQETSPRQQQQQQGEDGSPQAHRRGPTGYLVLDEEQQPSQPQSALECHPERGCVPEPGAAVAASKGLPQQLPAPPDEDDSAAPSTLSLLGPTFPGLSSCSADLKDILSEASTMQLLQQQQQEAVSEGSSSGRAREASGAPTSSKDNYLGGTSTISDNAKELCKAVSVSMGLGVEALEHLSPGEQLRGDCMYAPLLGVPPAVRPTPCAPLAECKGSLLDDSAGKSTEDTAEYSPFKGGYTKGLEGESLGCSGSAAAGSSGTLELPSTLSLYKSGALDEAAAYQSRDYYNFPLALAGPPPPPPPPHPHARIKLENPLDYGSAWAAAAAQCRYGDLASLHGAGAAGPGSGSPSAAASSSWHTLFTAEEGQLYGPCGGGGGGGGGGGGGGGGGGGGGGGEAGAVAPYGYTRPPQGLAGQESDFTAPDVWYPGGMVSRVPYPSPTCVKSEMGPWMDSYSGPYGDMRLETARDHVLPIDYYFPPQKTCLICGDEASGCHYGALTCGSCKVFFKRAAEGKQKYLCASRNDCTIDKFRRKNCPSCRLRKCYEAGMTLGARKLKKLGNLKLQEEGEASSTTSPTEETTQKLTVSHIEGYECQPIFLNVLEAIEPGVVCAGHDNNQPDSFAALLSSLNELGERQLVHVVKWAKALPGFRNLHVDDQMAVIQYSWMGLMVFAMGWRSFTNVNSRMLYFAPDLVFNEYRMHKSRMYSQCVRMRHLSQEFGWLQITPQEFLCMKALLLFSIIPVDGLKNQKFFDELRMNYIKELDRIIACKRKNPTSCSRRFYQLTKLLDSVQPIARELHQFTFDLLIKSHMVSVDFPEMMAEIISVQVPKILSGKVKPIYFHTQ

SMILES: C=CCOc1c(Br)cc(Br)cc1Br [ATE, allyl 2,4,6-tribromophenyl ether]
- AR expression [1]: significantly increased AR expression

SMILES: C=C(Br)COc1c(Br)cc(Br)cc1Br [BATE, 2-bromoallyl 2,4,6-tribromophenyl ether]
- AR expression [1]: significantly increased AR expression

SMILES: Oc1ccc(/N=N/c2ccc(-c3ccc(C(F)(F)C(F)(F)C(F)(F)F)cc3)cc2)c(F)c1 [FLO, 3-Fluoro-4-{(E)-[4'-(heptafluoropropyl) [1,1'-biphenyl]-4-yl]diazenyl}phenol]
- effect on dose response curve of testosterone [2]: did not change the dose response curves
- cytotoxicity [3]: relatively high cytotoxicity

SMILES: FC(F)(F)C(F)(F)C(F)(F)c1nc2ccccc2nc1-c1ccccc1 [HEP, 2-(Heptafluoropropyl)-3-phenylquinoxaline]
- testosterone induced expression of FKBP5 [4]: significantly and concentration dependently decreased
- testosterone induced expression of PSA [4]: significantly and concentration dependently decreased
- effect on dose response curve of testosterone [2]: rightward parallel shift
- IC20 [5]: 3.08 µM
- AR protein level, normal conditions [6]: significantly decreased the AR protein

SMILES: O=C(Nc1ccc([N+](=O)[O-])cc1)C(F)(F)C(F)(F)C(F)(F)C(F)(F)F [NNN, 2,2,3,3,4,4,5,5,5-Nonafluoro-N-(4 nitrophenyl)pentanamide]
- AR expression at 1 μM ([4]; 1 μM with […] testosterone): did not significantly affect AR expression
- testosterone induced expression of FKBP5 [4]: significantly and concentration dependently decreased
- testosterone induced expression of PSA [4]: significantly and concentration dependently decreased
- expression of AR [4]: upregulating the expression of AR
- effect on dose response curve of testosterone [2]: rightward parallel shift
- IC20 [5]: 2.78 µM
- inhibition at 10 µM ([5]; MDA-kb2, read-out: inhibition of AR transactivation): ~25%
- AR protein level, normal conditions [6]: did not significantly affect cellular AR protein levels

SMILES: O=c1cc(C(F)(F)C(F)(F)C(F)(F)C(F)(F)F)c2cc3c4c(c2o1)CCCN4CCC3 [NON, 9-(Nonafluorobutyl)-2,3,6,7-tetrahydro-1H,5H,11H-pyrano[2,3-f]pyrido[3,2,1-ij]quinolin-11-one]
- testosterone induced expression of FKBP5 [4]: significantly and concentration dependently decreased
- testosterone induced expression of PSA [4]: significantly and concentration dependently decreased
- effect on dose response curve of testosterone [2]: rightward parallel shift
- IC20 [5]: 10.5 µM
- AR protein level, normal conditions [6]: significantly decreased the AR protein

SMILES: Fc1c(F)c(F)c2c(F)c(F)c(F)c(F)c2c1F [OCT, Octafluoronaphthalene]
- effect on dose response curve of testosterone [2]: did not change the dose response curves

SMILES: CC(C)(O)C(=O)Nc1ccc([N+](=O)[O-])c(C(F)(F)F)c1 [OHF, hydroxyflutamide, reference compound]
- expression of AR [4]: upregulating the expression of AR
- effect on dose response curve of testosterone [2]: the most parallel shift

SMILES: O=C(O)C(F)(F)C(F)(F)C(F)(F)C(F)(F)C(F)(F)C(F)(F)C(F)(F)C(F)(F)C(F)(F)F [PFDA, perfluorodecanoate]
- RIC20, antiandrogenic effect [7]: ~24 µM

SMILES: O=S(=O)(O)C(F)(F)C(F)(F)C(F)(F)C(F)(F)C(F)(F)C(F)(F)F [PFHxS, perfluorohexane sulfonate]
- RIC20, antiandrogenic effect [7]: ~19 µM

SMILES: O=C(O)C(F)(F)C(F)(F)C(F)(F)C(F)(F)C(F)(F)C(F)(F)C(F)(F)C(F)(F)F [PFNA, perfluorononanoate]
- RIC20, antiandrogenic effect [7]: ~44 µM

SMILES: O=C(O)C(F)(F)C(F)(F)C(F)(F)C(F)(F)C(F)(F)C(F)(F)C(F)(F)F [PFOA, perfluorooctanoic acid]
- RIC20, antiandrogenic effect [7]: around 10 μM
